Here are results for 46 molecules from patent US11945790B2 (ImmunoMolecular Therapeutics, Inc., priority 2020, dated 2024).

For this experiment, the target named is HLA-DQ2 (Homo sapiens, UniProt P01909+P01920). In words: Inhibition of IL-2 secretion by TCR transductants stimulated by α-gliadin peptides presented by HLA-DQ2 expressing K562 cells (ELISA). Format: cell-based. The following applies: tested as trans racemate unless otherwise noted, lines naming several Examples = stereoisomer mixture of those Examples; for % Inh at 200 uM: inhibition of IL-2 secretion at 200 uM; for EC50: inhibition of IL-2 secretion, dose-response. The method, then: Three commercially available analogues of the DQ2 binding molecules of the invention were tested for their ability to inhibit stimulation of T cell receptor (TCR) transductants in the presence of HLA-DQ2 expressing cells presenting known α-gliadin epitopes.
Using a previously published in vitro assay (Ostrov D, et al. Methyldopa blocks MHC class II binding to disease specific antigens in autoimmune diabetes. J Clin Invest. 2018:128 (5)) the ability of these DQ2 binding analogues to inhibit interleukin-2 (IL-2) secretion by TCR transductants stimulated by α-gliadin peptides presented by HLA-DQ2 was determined. Individual TCR transductants (recognizing a I-gliadin or a II-gliadin) were cultured with a gliadin peptide plus the small molecule analogues in the presence of HLA-DQ2 expressing K562 cells serving as antigen presenting cells. TCR transductants cultured with no gliadin peptide served as the negative control, and incubation with an anti-CD3 antibody (eBioscience; clone 2C11) served as a positive control for the TCR transductant. Secreted IL-2 in the culture supernatant was measured using a highly sensitive enzyme-linked immunosorbent assay (ELISA). […] Assays for effects on cell viability and for specificity, assayed in the absence of gliadin peptide or in the presence of a stimulating anti-CD3 antibody, were performed. Unless otherwise noted, the stereochemistry shown below represents the relative configuration. Further, unless otherwise noted, compounds were tested as the trans racemate.

Each structure is given as a SMILES string.

Sequence of HLA-DQ2 (P01920 33-261 limits assumed, other chains not shown): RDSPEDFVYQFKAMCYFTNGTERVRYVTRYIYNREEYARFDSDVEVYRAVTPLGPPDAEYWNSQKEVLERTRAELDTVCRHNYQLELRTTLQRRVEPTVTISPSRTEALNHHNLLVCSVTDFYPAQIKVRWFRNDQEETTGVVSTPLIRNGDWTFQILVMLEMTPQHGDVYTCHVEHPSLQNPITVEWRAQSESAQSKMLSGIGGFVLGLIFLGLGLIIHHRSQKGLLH

In the case of `O=CNc1ccc(SCC(=O)N2CCN(C(=O)[C@@H]3C[C@H]3c3ccccc3)CC2)cc1` [Example 74], the “% Inh at 200 uM” value was “B (B=50-74%)”. The same measure, in the same setting: the same measure for `O=C(COc1ccccc1F)N1CCN(C(=O)[C@@H]2C[C@H]2c2ccccc2)CC1` [Example 98]: “B (B=50-74%)”; for `NC(=O)c1ccccc1OCC(=O)N1CCN(C(=O)[C@@H]2C[C@H]2c2ccccc2)CC1` [Example 90]: “B (B=50-74%)”. On the same count and under the same terms, as for `O=C(CSc1ccc(O)cc1)N1CCN(C(=O)[C@@H]2C[C@H]2c2ccccc2)CC1` [Example 76], the entry is “C (C=25-49%)”; as for `O=C(CSC1CCCC1)N1CCN(C(=O)[C@H]2C[C@@H]2c2cccc(O)c2)CC1` [Example 29], “B (B=50-74%)”. For `O=C(COc1ccccc1O)N1CCN(C(=O)[C@@H]2C[C@H]2c2ccccc2)CC1` [Example 105], the “% Inh at 200 uM” value is “B (B=50-74%)”. Same read-out and setting: as for `O=C(O)c1ccccc1OCC(=O)N1CCN(C(=O)[C@@H]2C[C@H]2c2ccccc2)CC1` [Example 97], the entry is “C (C=25-49%)”; as for `CC(C)SCC(=O)N1CCN(C(=O)[C@@H]2C[C@H]2c2ccccc2)CC1` [Example 45], “C (C=25-49%)”; as for `NC(=O)c1ccc(SCC(=O)N2CCN(C(=O)[C@@H]3C[C@H]3c3ccccc3)CC2)cc1` (relative stereo) [Example 85, 4-((2-Oxo-2-(4-(trans-2-phenylcyclopropanecarbonyl)piperazin-1-yl)ethyl)thio)benzamide], “C (C=25-49%)”. Consider `O=CNc1cccc(OCC(=O)N2CCN(C(=O)[C@@H]3C[C@H]3c3ccccc3)CC2)c1` [Example 94], for which the “% Inh at 200 uM” value was “C (C=25-49%)”.

For `O=C(O)c1ccc(SCC(=O)N2CCN(C(=O)[C@@H]3C[C@H]3c3ccccc3)CC2)cc1` [Example 104], the “% Inh at 200 uM” value is on record as “B (B=50-74%)”. The same measure, in the same setting: the same measure for `COc1ccccc1[C@H]1C[C@@H]1C(=O)N1CCN(C(=O)CSC2CCCC2)CC1` [Example 34]: “B (B=50-74%)”; for `Cc1cc(C(=O)N2CCN(C(=O)C3CC3c3ccc4c(c3)OCO4)CC2)c(C)o1` (stereo not drawn) [Example 8]: “A (A=≥75%)”. Still for that read-out and setting: as for `O=C(c1ccco1)N1CCN(C(=O)C2CC2c2ccc3c(c2)OCO3)CC1` (stereo not drawn) [Example 7], the entry is “B (B=50-74%)”; as for `CCCCSCC(=O)N1CCN(C(=O)[C@@H]2C[C@H]2c2ccccc2)CC1` (relative stereo) [Example 47, 2-(Butylthio)-1-(4-(trans-2-phenylcyclopropane-carbonyl)piperazin-1-yl)ethanone], “B (B=50-74%)”; as for `Cc1ccccc1SCC(=O)N1CCN(C(=O)[C@@H]2C[C@H]2c2ccccc2)CC1` (relative stereo) [Example 50, 1-(4-(Trans-2-phenylcyclopropanecarbonyl)piperazin-1-yl)-2-(o-tolylthio)ethanone], “C (C=25-49%)”.

Regarding `O=C(CSc1ccccc1)N1CCN(C(=O)[C@@H]2C[C@H]2c2ccccc2)CC1` (relative stereo) [Example 49, 1-(4-(Trans-2-phenylcyclopropane-1-carbonyl)piperazin-1-yl)-2-(phenylthio) ethan-1-one], the “% Inh at 200 uM” value is on record as “C (C=25-49%)”.

Take `O=C(COc1cccc(F)c1)N1CCN(C(=O)[C@@H]2C[C@H]2c2ccccc2)CC1` [Example 99]: the “% Inh at 200 uM” value is listed as “B (B=50-74%)”.

Turning to `COc1cccc(SCC(=O)N2CCN(C(=O)[C@@H]3C[C@H]3c3ccccc3)CC2)c1` [Example 62], the “% Inh at 200 uM” value is “C (C=25-49%)”.

Take `O=C(CSC1CCCC1)N1CCN(C(=O)[C@@H]2C[C@H]2c2ccc(F)cc2)CC1` [Example 68]: the “% Inh at 200 uM” value is on record as “C (C=25-49%)”.

In the case of `O=C(COC1CCCCC1)N1CCN(C(=O)C2CC2c2ccccc2)CC1` (stereo not drawn) [Example 40, 2-(Cyclohexyloxy)-1-(4-((trans-2-phenylcyclopropanecarbonyl)-piperazin-1-yl)ethanone], the “% Inh at 200 uM” value was “B (B=50-74%)”. The same measure, in the same setting: the same measure for `O=C(CSc1ccccc1Cl)N1CCN(C(=O)[C@@H]2C[C@H]2c2ccccc2)CC1` (relative stereo) [Example 60, 2-((2-Chlorophenyl)thio)-1-(4-(trans-2-phenylcyclopropane-1-carbonyl)piperazin-1-yl) ethan-1-one]: “B (B=50-74%)”. On to `O=C(O)CCSCC(=O)N1CCN(C(=O)[C@@H]2C[C@H]2c2ccccc2)CC1` [Example 112], for which the “% Inh at 200 uM” value was “D (D=0-24%)”. `O=C(O)CCNCC(=O)N1CCN(C(=O)[C@@H]2C[C@H]2c2ccccc2)CC1` [Example 111]: the “% Inh at 200 uM” value is “D (D=0-24%)”.

In the case of `O=C(O)CCOCC(=O)N1CCN(C(=O)[C@@H]2C[C@H]2c2ccccc2)CC1` [Example 110], the “% Inh at 200 uM” value was “D (D=0-24%)”. Same read-out and setting: as for `CN(CC(=O)N1CCN(C(=O)[C@H]2CC2c2ccccc2)CC1)C1CCCC1` (stereo partly drawn) [Example 82], the entry is “B (B=50-74%)”; as for `NC(=O)c1cccc(OCC(=O)N2CCN(C(=O)[C@@H]3C[C@H]3c3ccccc3)CC2)c1` [Example 91], “B (B=50-74%)”. `CC(C)OCC(=O)N1CCN(C(=O)[C@@H]2C[C@H]2c2ccccc2)CC1` (relative stereo) [Example 44, 2-Isopropoxy-1-(4-(trans-2-phenylcyclopropanecarbonyl)piperazin-1-yl) ethanone]: the “% Inh at 200 uM” value is “C (C=25-49%)”. On the same count and under the same terms, as for `O=C(CSc1ccccc1O)N1CCN(C(=O)[C@@H]2C[C@H]2c2ccccc2)CC1` [Example 88], the entry is “B (B=50-74%)”; as for `Cc1ccc(SCC(=O)N2CCN(C(=O)[C@@H]3C[C@H]3c3ccccc3)CC2)c(F)c1` (relative stereo) [Example 71, 2-((2-Fluoro-4-methylphenyl)thio)-1-(4-(trans-2-phenylcyclopropane-1-carbonyl)piperazin-1-yl) ethan-1-one], “A (A=≥75%)”.

Regarding `CC(C)c1ccc(SCC(=O)N2CCN(C(=O)[C@@H]3C[C@H]3c3ccccc3)CC2)cc1` (relative stereo) [Example 54, 2-((4-Isopropylphenyl)thio)-1-(4-(trans-2-phenylcyclopropane-1-carbonyl)piperazin-1-yl) ethan-1-one], the “% Inh at 200 uM” value is listed as “B (B=50-74%)”. Regarding `O=C(c1cc(Cl)ccc1Cl)N1CCN(C(=O)C2CC2c2ccc3c(c2)OCO3)CC1` (stereo not drawn) [Example 18], the “% Inh at 200 uM” value is recorded as “A (A=≥75%)”. Same read-out and setting: as for `O=C(CSC1CCCCCC1)N1CCN(C(=O)[C@@H]2C[C@H]2c2ccccc2)CC1` (relative stereo) [Example 69, 2-(Cycloheptylthio)-1-(4-(trans-2-phenylcyclopropane-1-carbonyl)piperazin-1-yl) ethan-1-one], the entry is “A (A=≥75%)”. The same measure, in the same setting: as for `CC1(c2ccccc2O)CC1C(=O)N1CCN(C(=O)CSC2CCCC2)CC1` (stereo not drawn) [Example 67], the entry is “C (C=25-49%)”. On the same count and under the same terms, as for `O=C(CSC1CCCC1)N1CCN(C(=O)[C@H]2C[C@@H]2c2ccc(F)c(F)c2)CC1` [Example 35], the entry is “A (A=≥75%)”. Take `COC(=O)c1ccc(OCC(=O)N2CCN(C(=O)[C@@H]3C[C@H]3c3ccccc3)CC2)cc1` (relative stereo) [Example 106, Methyl 4-(2-oxo-2-(4-(trans-2-phenylcyclopropanecarbonyl)piperazin-1-yl)ethoxy) benzoate]: the “% Inh at 200 uM” value was “A (A=≥75%)” and the concentration giving a half-maximal response (EC50) was 100 to 200 µM. For `O=C(O)CCCNCC(=O)N1CCN(C(=O)[C@@H]2C[C@H]2c2ccccc2)CC1` [Example 113], the “% Inh at 200 uM” value is reported as “D (D=0-24%)”. Still for that read-out and setting: as for `O=C(COC1CCCCCC1)N1CCN(C(=O)[C@@H]2C[C@H]2c2ccccc2)CC1` (relative stereo) [Example 52, 2-(Cycloheptyloxy)-1-(4-(trans-2-phenylcyclopropane-carbonyl)piperazin-1-yl)ethanone], the entry is “A (A=≥75%)”. On the same count and under the same terms, as for `O=C(COc1ccc(F)cc1)N1CCN(C(=O)[C@@H]2C[C@H]2c2ccccc2)CC1` [Example 108], the entry is “A (A=≥75%)”.

As for `O=C(Cc1cccs1)N1CCN(C(=O)C2CC2c2ccc3c(c2)OCO3)CC1` (stereo not drawn) [Example 24], the “% Inh at 200 uM” value is given as “A (A=≥75%)”. On to `Cc1ccc(SCC(=O)N2CCN(C(=O)[C@@H]3C[C@H]3c3ccccc3)CC2)cc1` [Example 53], for which the “% Inh at 200 uM” value was “B (B=50-74%)”. For the molecule `O=C(CS(=O)(=O)C1CCCC1)N1CCN(C(=O)[C@@H]2CC2c2ccccc2)CC1` (stereo partly drawn) [Example 102], the “% Inh at 200 uM” value is “C (C=25-49%)”. Consider `COC(=O)c1cccc(OCC(=O)N2CCN(C(=O)[C@@H]3C[C@H]3c3ccccc3)CC2)c1` (relative stereo) [Example 109], for which the “% Inh at 200 uM” value is given as “A (A=≥75%)” and the EC50 is 50 to 100 µM. Take `O=C(COC1CCC1)N1CCN(C(=O)[C@@H]2C[C@H]2c2ccccc2)CC1` (racemic) [Example 39, 2-Cyclobutoxy-1-(4-(trans-2-phenylcyclopropanecarbonyl)piperazin-1-yl) ethanone]: the “% Inh at 200 uM” value is “B (B=50-74%)”.

In the case of `O=CNc1ccccc1OCC(=O)N1CCN(C(=O)[C@@H]2C[C@H]2c2ccccc2)CC1` [Example 93], the “% Inh at 200 uM” value was “B (B=50-74%)”.

In the case of `O=C(CNC1CCCC1)N1CCN(C(=O)[C@H]2CC2c2ccccc2)CC1` (stereo partly drawn) [Example 81], the “% Inh at 200 uM” value is “A (A=≥75%)”.
